Data published in publication PMC7962642, “A Synergic Potential of Antimicrobial Peptides against Pseudomonas syringae pv. actinidiae” (Molecules, 2021).
Converted amounts (≈) assume the structure as drawn. Read-outs that look alike come from different tables or passages of the source. No end group written: not given here.

How the values were obtained:
[1] = tested on: Pseudomonas syringae pv. actinidiae (Psa) strains; experiment: Antibiogram assay (peptide drop on inoculated MH agar); type: cell-based; design: key: “ns” means the strain was not susceptible to the peptide in the tested concentration range; details: 1 µL drop on MH agar, 25 °C, 24 h, tested 0.4-200 µM
Experimental: All strains were obtained from stocks preserved at –80 °C and cultured in King’s B medium (protease peptone, 20.0 g; anhydrous K2HPO4, 1.5 g; glycerol, 10.0 mL; MgSO4·7H2O, 1.5 g; agar, […]; distilled water up to 1.0 L). Individual colonies of each strain were selected and re-streaked two times to ensure purity. Psa strains were isolated in different infected kiwifruit orchards between 2013 and 2017. CFBP7286 was used as Psa biovar 3 reference strain. For the antibiogram assays, pure colonies of all bacterial strains were grown overnight in Muller-Hinton Broth (MHB; Oxoid), at 28 °C and 240 rpm. Bacterial growth was monitored and adjusted to 0.135 optical density at 600 nm (OD600) in a spectrophotometer (Genesys 10uv Scanning, Thermo Scientific). […]
All six AMPs, BP100, RW-BP100, CA-M, D4E1, 3.1, and Dhvar-5 (Table 3), were evaluated by antibiogram assays to determine the most promising peptides against the selected bacterial strains. […]
For the pre-incubation, bacterial cultures were inoculated in Muller-Hinton (MH; Oxoid) agar (1.5%) medium by spreading 1 mL of each culture, removing the excess after 1 min and allowing drying for 15 min. […] After the incubation period, plate images were acquired on Gel Doc (BioRad, Hercules, CA, USA) and AMP activity was determined by no growth on drop site for each concentration. […]

[2] = tested on: Psa strains; experiment: Minimal inhibitory concentration (MIC), microplate growth in MHB; type: cell-based, Pseudomonas syringae pv. actinidiae
Experimental: (§1) All strains were obtained from stocks preserved at –80 °C and cultured in King’s B medium (protease peptone, 20.0 g; anhydrous K2HPO4, 1.5 g; glycerol, 10.0 mL; MgSO4·7H2O, 1.5 g; agar, […]; distilled water up to 1.0 L). Individual colonies of each strain were selected and re-streaked two times to ensure purity. Psa strains were isolated in different infected kiwifruit orchards between 2013 and 2017. CFBP7286 was used as Psa biovar 3 reference strain. For the antibiogram assays, pure colonies of all bacterial strains were grown overnight in Muller-Hinton Broth (MHB; Oxoid), at 28 °C and 240 rpm. Bacterial growth was monitored and adjusted to 0.135 optical density at 600 nm (OD600) in a spectrophotometer (Genesys 10uv Scanning, Thermo Scientific). […] For flow cytometry experiments, bacteria were cultured in King’s B broth medium for 20 h, at 25 °C in a shaking incubator at 200 rpm.
(§2) The MIC and MBC were determined for peptides discriminated by the antibiograms as the most efficient, i.e., RW-BP100, CA-M, 3.1, and BP100. […] In this assay, additional concentrations to those used in the antibiogram analysis were included in order to obtain more accurate results. Sterile 96-well microplates were filled with 150 µL of peptide and bacterial solution in a 1:1 ratio, leading to final concentrations of peptides equal to 0.25, 0.75, 1.6, 3.4, 6.2, 10, 25, 50, and 100 µM. As negative control a bacterial-free solution and sterile distilled water was used, and positive control with chlortetracycline to a final concentration of 25 µM was used. Microplates were incubated at 25 °C and 130 rpm and OD600 was measured hourly for 24 h, with 30 s vigorous shaking before each reading. The experiment was repeated three distinct times with different fresh bacterial colonies.
(§3) Data from bacterial growth curves were analyzed to determine IC50 values with two-way ANOVA and Tukey tests (p < 0.05). MIC values were set as the peptide lowest concentrations that reduced bacterial growth.

[3] = tested on: Psa strains; experiment: Minimal bactericidal concentration (MBC), subculture on peptide-free King's B agar; type: cell-based, Pseudomonas syringae pv. actinidiae
Experimental: as §1, §2, §3

[4] = tested on: Nicotiana tabacum cv. 'Havana' leaves; experiment: AMP toxicity on tobacco leaves by syringe infiltration; type: in vivo; details: AMP alone in PBS at assay concentration
Experimental: To assess the HR, the Psa reference CFBP7286 strain was used. CFBP7286 cells were more exposed to the AMPs (doses and periods of exposure) than those used on the flow cytometry and the CFUs analyzes; from individual effects of AMPs on the reference CFBP7286 strain, the HR was assessed. Tobacco plants (Nicotiana tabacum cv. ‘Havana’) were sown in plant pots of 1 L in peat substrate (Siro, Mira, Portugal). Plants were grown for 8 weeks in a growth chamber with a controlled temperature at 25 °C ± 2 and relative humidity at 50% ± 5. Psa infiltration on tobacco plants for HR was performed according to Stefani and Loreti using a syringe tip to inoculate 1 mL of bacterial suspension after 1 h of AMPs treatments in the abaxial side of the leaves. PBS was used as a negative control and Psa CFBP7286 at the same concentration and diluted in PBS for 1 h as the treatment was infiltrated as a positive control for HR. The AMPs at the assay concentration were prepared in PBS and infiltrated, also as a negative control of the treatment. The development of HR was monitored within 24 and 48 h post infiltration (hpi). Three tobacco plants, and three leaves of each plant, were used in three independent experiments.

[5] = tested on: Psa CFBP7286; type: cell-based; details: 1 h treatment; alone or combined with 3.1 at equal concentrations
Experimental: The number of viable bacteria cells of CFBP7286 strains was determined by CFU counting, using bacteria inocula exposed to the same AMPs (doses and periods of exposure) than those used on the flow cytometry assays. In the individual evaluation of BP100, CA-M, and 3.1 AMPs as well as the mixtures BP100:3.1 and CA-M:3.1, CFUs were determined by the drop method in the plate. All treated samples and controls were subjected to 10 serial ^1/10 dilutions in sterile PBS and 10 μL of each dilution was cultured on King’s B agar (1.5%) plates, with further incubation at 25 °C for 24 h. After the incubation time, plates were recorded in a GelDoc (BioRad) and colonies were counted for the last dilution with bacterial growth. This experiment was performed in three biological and temporal replicates.

[6] = tested on: Psa strains; experiment: IC50 from bacterial growth curves; type: cell-based, Pseudomonas syringae pv. actinidiae; details: based on bacterial growth curves, read-out: half-maximal inhibitory concentration (IC50)
Experimental: as §2, §3

[7] = tested on: tobacco leaf; details: cited from earlier work
Source text: The assays on tobacco plants are often used to analyze the toxicity effects of AMPs [[29],[30],[49],[5 ...

[8] = reference strain CFBP7286, MHB, 96-well, 25 °C, 130 rpm, OD600 hourly for 24 h, repeated three times
[9] = strain AL114b, MHB, 96-well, 25 °C, 130 rpm, OD600 hourly for 24 h, repeated three times
[10] = strain AL115, MHB, 96-well, 25 °C, 130 rpm, OD600 hourly for 24 h, repeated three times
[11] = strain Fv62, MHB, 96-well, 25 °C, 130 rpm, OD600 hourly for 24 h, repeated three times
[12] = strain P85, MHB, 96-well, 25 °C, 130 rpm, OD600 hourly for 24 h, repeated three times
[13] = strain VN29, MHB, 96-well, 25 °C, 130 rpm, OD600 hourly for 24 h, repeated three times
[14] = strain VV10, MHB, 96-well, 25 °C, 130 rpm, OD600 hourly for 24 h, repeated three times
[15] = strain VV112, MHB, 96-well, 25 °C, 130 rpm, OD600 hourly for 24 h, repeated three times
[16] = reference strain CFBP7286, subculture on peptide-free King's B agar, 25 °C, 24 h
[17] = strain AL114b, subculture on peptide-free King's B agar, 25 °C, 24 h
[18] = strain AL115, subculture on peptide-free King's B agar, 25 °C, 24 h
[19] = strain Fv62, subculture on peptide-free King's B agar, 25 °C, 24 h
[20] = strain P85, subculture on peptide-free King's B agar, 25 °C, 24 h
[21] = strain VN29, subculture on peptide-free King's B agar, 25 °C, 24 h
[22] = strain VV10, subculture on peptide-free King's B agar, 25 °C, 24 h
[23] = strain VV112, subculture on peptide-free King's B agar, 25 °C, 24 h
[24] = summary over the eight Psa strains (abstract)
[25] = all strains (for CA-M except P85 and VN29), repeated three times

Row | Molecule | MIC [2, 8] | MIC [2, 9] | MIC [2, 10] | MIC [2, 11] | MIC [2, 12] | MIC [2, 13] | MIC [2, 14] | MIC [2, 15] | MBC [3, 16] | MBC [3, 17] | MBC [3, 18] | MBC [3, 19] | MBC [3, 20] | MBC [3, 21] | MBC [3, 22] | MBC [3, 23] | AMP toxicity on tobacco plants [4] | MBC [3, 24] | IC50 [6, 25] | also measured
1 | LLLFLLKKRKKRKY-NH2 [Dhvar-5] |  |  |  |  |  |  |  |  |  |  |  |  |  |  |  |  |  |  |  | antibiogram inhibitory concentration ([1]; strain VC104b): ns; antibiogram inhibitory concentration ([1]; strain VN29): ns
2 | KKLLKWLLKLL-NH2 [3.1] | 10 µM | 25 µM | 10 µM | 10 µM | 25 µM | 10 µM | 10 µM | 10 µM | 25 µM | 25 µM | 10 µM | 25 µM | 25 µM | 25 µM | 25 µM | 25 µM | absence/low toxicity |  |  | 
3 | CC[C@H](C)[C@H](NC(=O)[C@H](CCCCN)NC(=O)[C@H](CCCCN)NC(=O)[C@H](Cc1ccccc1)NC(=O)[C@H](CC(C)C)NC(=O)[C@H](CCCCN)NC(=O)[C@@H](N)CCCCN)C(=O)N[C@@H](CC(C)C)C(=O)N[C@@H](CCCCN)C(=O)N[C@@H](Cc1ccc(O)cc1)C(=O)N[C@@H](CC(C)C)C(N)=O [BP100, reference compound] | 3.4 µM (≈ 4.83 µg/mL) | 3.4 µM (≈ 4.83 µg/mL) | 3.4 µM (≈ 4.83 µg/mL) | 3.4 µM (≈ 4.83 µg/mL) | 3.4 µM (≈ 4.83 µg/mL) | 3.4 µM (≈ 4.83 µg/mL) | 3.4 µM (≈ 4.83 µg/mL) | 3.4 µM (≈ 4.83 µg/mL) | 3.4 µM (≈ 4.83 µg/mL) | 3.4 µM (≈ 4.83 µg/mL) | 3.4 µM (≈ 4.83 µg/mL) | 10 µM (≈ 14.2 µg/mL) | 6.2 µM (≈ 8.81 µg/mL) | 6.2 µM (≈ 8.81 µg/mL) | 6.2 µM (≈ 8.81 µg/mL) | 10 µM (≈ 14.2 µg/mL) | absence/low toxicity | 3.4 to 10 µM | ~2 µM | lethal concentration of BP100 by CFUs [5]: 2 µM; tobacco leaf lesions ([7]; at 50 µM): 4 mm; tobacco leaf lesions ([7]; at 250 µM): 12.5 mm
4 | KWKLFKKIGAVLKVL-NH2 [CA-M] | 3.4 µM | 3.4 µM | 3.4 µM | 3.4 µM | 6.2 µM | 6.2 µM | 3.4 µM | 3.4 µM | 6.2 µM | 10 µM | 6.2 µM | 10 µM | 6.2 µM | 6.2 µM | 6.2 µM | 6.2 µM | absence/low toxicity | 3.4 to 10 µM | ~2 µM | MIC [2, 24]: 3.4 to 6.2 µM; IC50 ([6]; strain P85): ~4 µM; IC50 ([6]; strain VN29): ~4 µM
5 | RRLFRRILRWL-NH2 [RW-BP100] | 3.4 µM | 6.2 µM | 6.2 µM | 6.2 µM | 6.2 µM | 6.2 µM | 6.2 µM | 6.2 µM | 6.2 µM | 6.2 µM | 6.2 µM | 6.2 µM | 6.2 µM | 6.2 µM | 6.2 µM | 6.2 µM |  |  |  | 
